Assay results reported in US11701394B2, “Compositions and methods for treating cholestatic disease” (Seres Therapeutics, Inc., priority 2017, dated 2023).

Experiments:
[1] = biological target: T1, human FXR (Homo sapiens, UniProt Q96RI1); conditions: in the presence of 50 uM CDCA
T1 sequence (Q96RI1 262-486 limits assumed): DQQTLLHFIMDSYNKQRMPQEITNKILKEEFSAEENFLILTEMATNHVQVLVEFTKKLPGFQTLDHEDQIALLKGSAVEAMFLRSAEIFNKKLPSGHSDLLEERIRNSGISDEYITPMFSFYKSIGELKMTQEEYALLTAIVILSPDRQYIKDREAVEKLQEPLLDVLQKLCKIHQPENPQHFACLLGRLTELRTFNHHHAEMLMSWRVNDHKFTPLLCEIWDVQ
Protocol: FXR reporter cell assays were performed by Indigo Biosciences as directed by Seres Therapeutics using Indigo's FXR reporter CHO cell line, which expresses an FXR receptor hybrid in which the native N-terminal DNA binding domain (DBD) has been replaced with that of a yeast Gal4 DBD. The reporter gene, firefly luciferase, is functionally linked to a Gal4 upstream activation sequence (UAS). […] Luminescence was determined following incubation with substrate and a detection reagent. In addition, live cell count was determined within the assay using a Live Cell Multiplex (LCM) Assay (Indigo Biosciences).

[2] = tested on: FXR; assay: FXR signaling in mice: CYP7A1 (liver) and FGF-15 (ileum) expression
Description: We therefore tested a dose range of OCA as well as a fixed concentration of CA for their effects on FXR signaling in mice. Ileal and liver FXR signaling was monitored based on the expression of CYP7A1 (liver) and FGF-15 (Ileum).

Row | SMILES | hFXR activation in combination with CDCA [1] | CYP7A1 expression (liver) [2] | FGF-15 levels (ileum) [2]
1 | C[C@H](CCC(=O)O)[C@H]1CC[C@H]2[C@@H]3[C@H](O)[C@H](O)[C@@H]4C[C@H](O)CC[C@]4(C)[C@H]3CC[C@]12C [HCA, hyocholic acid] | activated human FXR in a dose-dependent and synergistic manner | – | –
2 | C[C@H](CCC(=O)O)[C@H]1CC[C@H]2[C@@H]3[C@H](O)C[C@@H]4C[C@H](O)CC[C@]4(C)[C@H]3C[C@H](O)[C@]12C [cholic acid] | – | decreased CYP7A1 expression | increased FGF-15 levels in the ileum
3 | CC[C@H]1[C@@H](O)[C@@H]2[C@H](CC[C@]3(C)[C@@H]([C@H](C)CCC(=O)O)CC[C@@H]23)[C@@]2(C)CC[C@@H](O)C[C@@H]12 [OCA, obeticholic acid] | – | dose dependent decrease in CYP7A1 expression | increase in FGF-15 levels
